Measured values from patent US20170275302A1, “INHIBITORS OF THE RENAL OUTER MEDULLARY POTASSIUM CHANNEL” (Merck Sharp & Dohme Corp., priority 2014, published 2017).

target: T1, hROMK (hKir1.1) (Homo sapiens, UniProt P48048); experiment: Thallium Flux Assay (ROMK channel functional thallium flux assay, FLIPR-Tetra); assay type: cell-based; details: HEK293 cells stably expressing hROMK (hKir1.1); FluxOR thallium flux, 30 min compound incubation; concentration inhibiting 50% of ROMK thallium flux signal
T1 construct: expressed in transfected cells
T1 sequence (P48048 1-391): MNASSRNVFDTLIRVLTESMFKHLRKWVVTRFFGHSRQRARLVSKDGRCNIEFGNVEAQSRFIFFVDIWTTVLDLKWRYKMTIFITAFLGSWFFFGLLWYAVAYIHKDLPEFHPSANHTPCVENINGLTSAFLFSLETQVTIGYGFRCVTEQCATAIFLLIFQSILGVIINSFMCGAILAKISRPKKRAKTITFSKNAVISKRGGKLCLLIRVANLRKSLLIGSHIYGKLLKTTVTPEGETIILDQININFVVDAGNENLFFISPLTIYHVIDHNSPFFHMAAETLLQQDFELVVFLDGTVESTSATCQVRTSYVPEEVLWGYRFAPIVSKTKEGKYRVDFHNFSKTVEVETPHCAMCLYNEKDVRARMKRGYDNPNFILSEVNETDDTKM
Procedure: The following Thallium Flux Assay was performed on each of the final product compounds in the Examples.
HEK293 cells stably expressing hROMK (hKir1.1) were grown at 37° C. in a 10% CO2 humidified incubator in complete growth media: Dulbecco's Modified Eagle Medium supplemented with non-essential amino acids, Penicillin/Streptomycin/Glutamine, G418 and FBS. At >80% confluency, the media was aspirated from the flask and rinsed with 10 mL calcium/magnesium-free phosphate buffered saline (PBS). 5 mL of 1× trypsin (prepared in Ca/Mg Free PBS) was added to T-225 flask and the flask was returned to 37° C./CO2 incubator for 2-3 minutes. To dislodge the cells, the side of the flask was gently banged with one's hand. The cells were completely titrated and then the cells were transferred to 25 mL complete media, centrifuged at 1,500 rpm for 6 min followed by resuspension in complete growth media, and the cell concentration was determined. For typical re-seeding, 4E6 cells/T-225 flask will attain >80% confluency in 4 days. Under ideal growth conditions and appropriate tissue culture practices, this cell line is stable for 40-45 passages.
Compound Buffer (per microplate): 20 mL Probenecid/Assay Buffer; 0.3 mM ouabain (10 mM ouabain in water can be stored in amber bottle/aluminum foil at room temperature); Test compound
Stimulant Buffer (prepared at 5× final concentration in 1× FluxOR™Chloride-Free Buffer): 7.5 mM thallium sulfate and 0.75 mM potassium sulfate (to give a final assay concentration of 3 mM Thallium/0.3 mM potassium). Store at 4° C. when not in use. If kept sterile, this solution is good for months.
The ROMK channel functional thallium flux assay was performed in 384 wells, using the FLIPR-Tetra instrument. HEK-hKir1.1 cells were seeded in Poly-D-Lysine microplates and kept in a 37° C.-10% CO2 incubator overnight. On the day of the experiment, the growth media was replaced with the FluxOR™ reagent loading buffer and incubated, protected from light, at ambient temperature (23-25° C.) for 90 min. The loading buffer was replaced with assay buffer±test compound followed by 30 min incubation at ambient temperature, where the thallium/potassium stimulant was added to the microplate.
• 1. Seed HEK-hKir1.1 cells (50 μl at 20,000 cells/well) in 384-well PDL coated Microplates • 2. Allow cells to adhere overnight in humidified 37° C./10% CO2 incubator • 3. Completely remove cell growth media from microplate and replace with 25 μl loading buffer • 4. Incubate Microplate at room temperature, protected form light, for 90 min • 5. Remove loading buffer and replace with 25 μl 1× Assay Buffer±test compound. • 6. Incubate microplate at room temperature, protected from light, for 30 min • 7. At FLIPR-Tetra 384: Add stimulant (thallium/potassium) solution to microplate and monitor fluorescence. Excitation=400 nm, Emission=460 & 580 nm. Collect data for ˜10 min.
The fluorescence intensity of wells containing 3 μM of a standard control ROMK inhibitor of the present invention was used to define the ROMK-sensitive component of thallium flux. Fluorescence in the presence of test compounds was normalized to control values to provide % fluorescence change. IC50 values represent the concentration of compound that inhibited 50% of the ROMK thallium flux signal.

IC50 [nM] | Structure (SMILES)
84 | OC(CN1CCC2(CC1)CCN(c1ccc3nncn3n1)C2)c1ccc(-n2cnnn2)nc1 (racemic) [Example 52]
18.7 | Cc1c(C(O)CN2CCC3(CC2)CCN(c2ccc4nncn4n2)C3)ccc(C#N)c1F (racemic) [Example 53]
35.9 | Cc1c(F)c(C#N)cc(F)c1C(O)CN1CCC2(CC1)CCN(c1ccc3nncn3n1)C2 (racemic) [Example 54, 4-(2-(2-([1,2,4]triazolo[4,3-b]pyridazin-6-yl)-2,8-diazaspiro[4.5]decan-8-yl)-1-hydroxyethyl)-2,5-difluoro-3-methylbenzonitrile]
26 | Cc1cc(C#N)c(F)cc1C(O)CN1CCC2(CC1)CCN(c1ccc3nncn3n1)C2 (racemic) [Example 55]
72.6 | OC(CN1CCC2(CCN(c3ccc4nncn4n3)CC2)C1)c1ccc(-n2cnnn2)nc1 (racemic) [Example 69]
745 | Cc1c([C@@H](O)CN2CCC3(CC2)CCN(c2nccn4nccc24)C3)ccc2c1COC2=O [Example 1, (R)-5-(1-hydroxy-2-(2-(pyrazolo[1,5-α]pyrazin-4-yl)-2,8-diazaspiro[4.5]decan-8-yl)ethyl)-4-methylisobenzofuran-1(3H)-one]
132 | Cc1c([C@@H](O)CN2CCC3(CC2)CCN(c2nc4cc(C#N)ccc4[nH]2)C3)ccc2c1COC2=O [Example 2]
235 | Cc1c([C@@H](O)CN2CCC3(CC2)CCN(c2nccn4cnnc24)C3)ccc2c1COC2=O [Example 3]
779 | Cc1c([C@@H](O)CN2CCC3(CC2)CCN(c2nc4cc(F)ccc4o2)C3)ccc2c1COC2=O [Example 4]
74.7 | Cc1c([C@@H](O)CN2CCC3(CC2)CCN(c2ccc4nncn4n2)C3)ccc2c1COC2=O [Example 5, (R)-5-(2-(2-([1,2,4]triazolo[4,3-b]pyridazin-6-yl)-2,8-diazaspiro[4.5]decan-8-yl)-1-hydroxyethyl)-4-methylisobenzofuran-1 (3H)-one]
304 | Cc1c([C@@H](O)CN2CCC3(CC2)CCN(c2nc4c(S(N)(=O)=O)cccc4s2)C3)ccc2c1COC2=O [Example 6]
620 | Cc1c([C@@H](O)CN2CCC3(CC2)CCN(C2=Nc4ccccc4C4=NCCN42)C3)ccc2c1COC2=O [Example 7]
246 | Cc1c([C@@H](O)CN2CCC3(CC2)CCN(c2ccn4nccc4n2)C3)ccc2c1COC2=O [Example 8]
261 | Cc1c([C@@H](O)CN2CCC3(CC2)CCN(c2nn4cnnc4c4ccccc24)C3)ccc2c1COC2=O [Example 9]
12.8 | Cc1c([C@@H](O)CN2CCC3(CC2)CCN(c2ccc4nnnn4n2)C3)ccc2c1COC2=O [Example 10, (R)-5-(1-hydroxy-2-(2-(tetrazolo[1,5-b]pyridazin-6-yl)-2,8-diazaspiro[4.5]decan-8-yl)ethyl)-4-methylisobenzofuran-1(3H)-one]
47.7 | CSCc1nnc2ccc(N3CCC4(CCN(C[C@H](O)c5ccc6c(c5C)COC6=O)CC4)C3)nn12 [Example 11]
411 | Cc1c([C@@H](O)CN2CCC3(CC2)CCN(c2ccc4nnc(-c5ccco5)n4n2)C3)ccc2c1COC2=O [Example 13]
204 | Cc1c([C@@H](O)CN2CCC3(CC2)CCN(c2ccc4nnc(C5CC5)n4n2)C3)ccc2c1COC2=O [Example 14]
287 | Cc1c([C@@H](O)CN2CCC3(CC2)CCN(c2ccc4nnc(C(F)(F)F)n4n2)C3)ccc2c1COC2=O [Example 15]

IC50 [nM] | Structure (SMILES)
97.8 | CCc1nnc2ccc(N3CCC4(CCN(C[C@H](O)c5ccc6c(c5C)COC6=O)CC4)C3)nn12 [Example 16]
486 | Cc1c([C@@H](O)CN2CCC3(CC2)CCN(c2ncc4c(C)n[nH]c4n2)C3)ccc2c1COC2=O [Example 17]
339 | Cc1c([C@@H](O)CN2CCC3(CCCN(c4nccn5cnnc45)C3)C2)ccc2c1COC2=O (some centres unmarked) [Example 18]
74.7 | Cc1c([C@@H](O)CN2CCC3(CC2)CCN(c2ccc4nnc(C)n4n2)C3)ccc2c1COC2=O [Example 19]
236 | COc1cc([C@@H](F)CN2CCC3(CC2)CCN(c2ccc4nncn4n2)C3)ncc1C#N [Example 21]
212 | COc1cc([C@H](CN2CCC3(CC2)CCN(c2ccc4nncn4n2)C3)OC(=O)C2CC2)ncc1C#N [Example 22]
108 | COc1cc([C@H](CN2CCC3(CC2)CCN(c2ccc4nncn4n2)C3)OC(C)=O)ncc1C#N [Example 23, (S)-2-(2-([1,2,4]triazolo[4,3-β]pyridazin-6-yl)-2,8-diazaspiro[4.5]decan-8-yl)-1-(5-cyano-4-methoxypyridin-2-yl)ethyl acetate]
850 | Cc1c([C@@H](O)CN2CCC3(CC2)CCN(c2cnc4nncn4c2)C3)ccc2c1COC2=O [Example 24, (R)-5-(2-(2-([1,2,4]triazolo[4,3-a]pyrimidin-6-yl)-2,8-diazaspiro[4.5]decan-8-yl)-1-hydroxyethyl)-4-methylisobenzofuran-1(3H)-one]
342 | Cc1c([C@@H](O)CN2CCC3(CC2)CCN(c2ccc4nsnc4c2)C3)ccc2c1COC2=O [Example 25, (R)-5-(2-(2-(benzo[c][1,2,5]thiadiazol-5-yl)-2,8-diazaspiro[4.5]decan-8-yl)-1-hydroxyethyl)-4-methylisobenzofuran-1 (3H)-one]
199 | COC1OC(=O)c2ccc(N3CCC4(CCN(C[C@H](O)c5ccc6c(c5C)COC6=O)CC4)C3)cc21 (stereo partly drawn) [Example 26, 5-((1R)-1-hydroxy-2-(2-(3-methoxy-1-oxo-1,3-dihydroisobenzofuran-5-yl)-2,8-diazaspiro[4.5]decan-8-yl)ethyl)-4-methylisobenzofuran-1(3H)-one]
317 | Cc1c([C@@H](O)CN2CCC3(CC2)CCN(c2snc4ncccc24)C3)ccc2c1COC2=O [Example 27, (R)-5-(1-hydroxy-2-(2-(isothiazolo[3,4-b]pyridin-3-yl)-2,8-diazaspiro[4.5]decan-8-yl)ethyl)-4-methylisobenzofuran-1(3H)-one]
261 | Cc1c([C@@H](O)CN2CCC3(CC2)CCN(c2cc4cncnc4s2)C3)ccc2c1COC2=O [Example 28, (R)-5-(1-Hydroxy-2-(2-(thieno[2,3-d]pyrimidin-6-yl)-2,8-diazaspiro[4.5]decan-8-yl)ethyl)-4-methylisobenzofuran-1 (3H)-one]
301 | Cc1c([C@@H](O)CN2CCC3(CC2)CCN(c2cnc4snnc4c2)C3)ccc2c1COC2=O [Example 29, (R)-5-(2-(2-([1,2,3]thiadiazolo[5,4-b]pyridin-6-yl)-2,8-diazaspiro[4.5]decan-8-yl)-1-hydroxyethyl)-4-methylisobenzofuran-1(3H)-one]
83.2 | Cc1c([C@@H](O)CN2CCC3(CC2)CCN(c2cnc4snnc4c2)C3=O)ccc2c1COC2=O [Example 30]
267 | Cc1c([C@@H](O)CN2CCC3(CC2)CCN(c2ccc4nsnc4c2)C3=O)ccc2c1COC2=O [Example 31]
48.8 | Cc1c([C@@H](O)CN2CCC3(CC2)CCN(c2cc4ccncc4s2)C3=O)ccc2c1COC2=O [Example 32]
284 | COc1cc2ccc(N3CCC4(CCN(C[C@H](O)c5ccc6c(c5C)COC6=O)CC4)C3=O)nc2cn1 [Example 33]
427 | Cc1c([C@@H](O)CN2CCC3(CC2)CCN(c2ccc4sccc4n2)C3=O)ccc2c1COC2=O [Example 34]
537 | Cc1c([C@@H](O)CN2CCC3(CC2)CCN(c2ccc4ncnn4c2)C3=O)ccc2c1COC2=O [Example 35]
